From paper PMC3170879 (Chemmedchem, 2011)

Molecular target: T1, steroid sulfatase (STS) (Homo sapiens, UniProt P08842)
T1 sequence (P08842 22-583): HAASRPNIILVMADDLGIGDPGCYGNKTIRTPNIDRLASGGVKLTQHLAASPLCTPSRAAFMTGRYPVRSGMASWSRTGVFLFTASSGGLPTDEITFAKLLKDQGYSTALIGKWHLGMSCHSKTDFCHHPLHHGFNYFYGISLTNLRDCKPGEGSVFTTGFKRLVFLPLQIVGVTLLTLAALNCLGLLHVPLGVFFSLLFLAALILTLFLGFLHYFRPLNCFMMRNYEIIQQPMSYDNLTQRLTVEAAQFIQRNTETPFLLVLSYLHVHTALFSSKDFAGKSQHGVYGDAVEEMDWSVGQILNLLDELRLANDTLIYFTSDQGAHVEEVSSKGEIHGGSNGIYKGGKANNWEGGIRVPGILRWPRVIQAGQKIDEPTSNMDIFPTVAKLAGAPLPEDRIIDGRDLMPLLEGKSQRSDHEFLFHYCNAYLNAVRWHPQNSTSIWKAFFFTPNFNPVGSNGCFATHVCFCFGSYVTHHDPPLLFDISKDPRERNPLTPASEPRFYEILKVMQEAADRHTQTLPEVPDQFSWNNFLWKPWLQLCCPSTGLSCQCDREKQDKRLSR
Test: radiometric sulfatase assay, intact JEG-3 monolayer
Assay type: cell-based
Conditions: read-out: [drawing 5]; [6,7-3H]oestrone sulfate substrate, 1 h

IC50: > 10 µM
Structure (SMILES): CN(C)S(=O)(=O)Oc1ccc(C(c2ccc(C#N)cc2)n2cncn2)cc1Br (racemic) [compound 42, 2-Bromo-4-((4-cyanophenyl)(1H-1,2,4-triazol-1-yl)methyl)phenyl dimethylsulfamate]
